One assay deals with BALB/c mice. Kind of assay: In vivo delivery of Fluc mRNA-encapsulating LNP formulations, luciferase signal by In Vivo Imaging System (IVIS). To be noted: tail vein injection (IV) 70 μL, female BALB/c mice, 6 hours after injection; for Average number of photons (Total in-vivo flux): LNP formulation encapsulating Fluc mRNA (Lipid:DSPC:CHO-HP:M-DMG-2000 48:10:40.5:1.5); for Average number of photons (Liver) / Average number of photons (Spleen): LNP formulation encapsulating Fluc mRNA. The protocol:
Animal preparation: Female BALB/c mice of 6-8 weeks old were selected and raised in an SPF grade breeding room. Animal testing was conducted in strict accordance with the guidelines of national health institutions and animal ethics requirements.
In vivo Delivery: prior to injection of the test LNP formulation, the LNP formulation was gently and repeatedly inverted to thoroughly mix the sample of the formulation. A corresponding amount of the LNP formulation was aspirated with a 1 ml insulin syringe, and the LNP formulation was injected by tail vein injection (IV), with 3 mice in duplicate per formulation. Each mouse was injected with 70 μL of the corresponding LNP formulation encapsulating the luciferase mRNA (Fluc mRNA) prepared in Experimental Example 1.
6 hours after injection of LNP formulations, mice were injected with 200 μL D-Luciferin luciferase developing substrate (Catalog No. 122799; Manufacturer: Perkin Elmer). After the substrate was injected, the mice were anesthetized with isoflurane inhalation, and the injection time of luciferase developing substrate was recorded.
The encapsulation efficiency of the lipid nanoparticle encapsulating luciferase mRNA (Fluc mRNA) with a representative amino lipid compound and the fluorescence expression intensity induced by the same are shown in Table 4, with the LNP formulation containing SM-102, 1001 or ALC-0315 as a control LNP formulation. The preparation method of the control LNP formulation was basically the same as that of the LNP formulations in Experimental Example 1, with the difference lying in that the amino lipid compounds of the present disclosure were replaced with SM-102, 1001 or ALC-0315 in the preparation of the control LNP formulation.

Assay [1] concerns immune cell populations in the spleen and PBMC. Kind of assay: Delivery efficiency of eGFP mRNA LNP to immune cell populations in spleen and peripheral blood (flow cytometry). In kind it is in vivo. Conditions: eGFP mRNA encapsulating LNP, intravenous, C57BL/6 mice, 12 hours, flow cytometry (FIG. 6 to 7). The protocol: C57BL/6 mice (3 mice per group) were intravenously injected with eGFP mRNA encapsulating LNP. After 12 hours, the mice were dissected, and the spleen and peripheral blood, were collected to prepare single-cell suspensions of various tissues and organs. After blocking with Fc blocking antibodies and surface staining with fluorescent-labeled antibodies, flow cytometry was conducted to analyze the expression levels of eGFP in various immune cell populations to confirm the delivery efficiency of lipid nanoparticles comprising different amino lipid compounds to immune cell populations in different tissues and organs.
“Blank” in FIG. 6 and FIG. 7 refers to the control group injected with 100 μL Tris buffer.
For orientation: A flow cytometer gives signals particle by particle.

With `CCCCCCOC(CCCOC(=O)CCCCCC(CCCCCC(=O)OCCCC(OCCCCCC)OCCCCCC)OC(=O)OCCCN(CC)CC)OCCCCCC` [compound 2045], in the assay on BALB/c mice, the “Average number of photons (Total in-vivo flux)” value is given as 5.83E+07, the “Average number of photons (Liver)” value amounted to 8.90E+06 and the “Average number of photons (Spleen)” value was determined as 1.89E+06. In addition, in assay [1], the “delivery efficiency to immune cell populations (eGFP expression)” value (“delivery efficiency” below) is reported as “different delivery preferences to different immune cells”.
As for `CCCCCCOC(CCCOC(=O)CCCCCC(CCCCCC(=O)OCCCC(OCCCCCC)OCCCCCC)OC(=O)OCCCN(C)C)OCCCCCC` [compound 2039], in the assay with BALB/c mice, the “Average number of photons (Total in-vivo flux)” value turned out to be 2.05E+08, the “Average number of photons (Liver)” value stood at 4.26E+07 and the “Average number of photons (Spleen)” value was found to be 3.75E+07. The “delivery efficiency” value in assay [1] was “different delivery preferences to different immune cells”.
With `CCCCCCOC(CCCOC(=O)CCCCCCCCC(CCCCCCCCC(=O)OCCCC(OCCCCCC)OCCCCCC)OC(=O)OCCCN(C)C)OCCCCCC` [compound 388], in the assay with BALB/c mice, the “Average number of photons (Total in-vivo flux)” value was determined as 1.94E+08, the “Average number of photons (Liver)” value came to 3.66E+07 and the “Average number of photons (Spleen)” value came out at 1.34E+06. The “delivery efficiency” value in assay [1] is reported as “different delivery preferences to different immune cells”.
On to `CCCCCCOC(CCCOC(=O)CCCCCCCCC(CCCCCCCCC(=O)OCCCC(OCCCCCC)OCCCCCC)OC(=O)OCCCN(CC)CC)OCCCCCC` [compound 382], for which, in the assay on BALB/c mice, the “Average number of photons (Total in-vivo flux)” value was determined as 5.28E+07, the “Average number of photons (Liver)” value was 6.78E+06 and the “Average number of photons (Spleen)” value turned out to be 1.88E+05. Moreover, in assay [1], the “delivery efficiency” value is listed as “different delivery preferences to different immune cells”.
Consider `CCCCCCOC(CCCOC(=O)CCCCCCCC(CCCCCCCC(=O)OCCCC(OCCCCCC)OCCCCCC)OC(=O)OCCCN(C)C)OCCCCCC` [compound 2041], for which, in the assay on BALB/c mice, the “Average number of photons (Total in-vivo flux)” value was determined as 2.08E+08, the “Average number of photons (Liver)” value is reported as 4.16E+07 and the “Average number of photons (Spleen)” value is listed as 1.07E+07. In assay [1], the “delivery efficiency” value was “different delivery preferences to different immune cells”.

Values taken from patent US20260035338A1, “AMINO LIPID COMPOUND AND LIPID NANOPARTICLE FOR DELIVERING BIOACTIVE INGREDIENT” (SHENZHEN SHENXIN BIOTECHNOLOGY CO., LTD., priority 2022, published 2026).
